This note sets out measurements from PMC4925217 (FEBS letters, 2016).

For assay [1], the target named is T1, ScRR (ScRR1 with ScRR2•ScRR4) (Saccharomyces cerevisiae, UniProt P21524).
T1 sequence (P21524 1-888): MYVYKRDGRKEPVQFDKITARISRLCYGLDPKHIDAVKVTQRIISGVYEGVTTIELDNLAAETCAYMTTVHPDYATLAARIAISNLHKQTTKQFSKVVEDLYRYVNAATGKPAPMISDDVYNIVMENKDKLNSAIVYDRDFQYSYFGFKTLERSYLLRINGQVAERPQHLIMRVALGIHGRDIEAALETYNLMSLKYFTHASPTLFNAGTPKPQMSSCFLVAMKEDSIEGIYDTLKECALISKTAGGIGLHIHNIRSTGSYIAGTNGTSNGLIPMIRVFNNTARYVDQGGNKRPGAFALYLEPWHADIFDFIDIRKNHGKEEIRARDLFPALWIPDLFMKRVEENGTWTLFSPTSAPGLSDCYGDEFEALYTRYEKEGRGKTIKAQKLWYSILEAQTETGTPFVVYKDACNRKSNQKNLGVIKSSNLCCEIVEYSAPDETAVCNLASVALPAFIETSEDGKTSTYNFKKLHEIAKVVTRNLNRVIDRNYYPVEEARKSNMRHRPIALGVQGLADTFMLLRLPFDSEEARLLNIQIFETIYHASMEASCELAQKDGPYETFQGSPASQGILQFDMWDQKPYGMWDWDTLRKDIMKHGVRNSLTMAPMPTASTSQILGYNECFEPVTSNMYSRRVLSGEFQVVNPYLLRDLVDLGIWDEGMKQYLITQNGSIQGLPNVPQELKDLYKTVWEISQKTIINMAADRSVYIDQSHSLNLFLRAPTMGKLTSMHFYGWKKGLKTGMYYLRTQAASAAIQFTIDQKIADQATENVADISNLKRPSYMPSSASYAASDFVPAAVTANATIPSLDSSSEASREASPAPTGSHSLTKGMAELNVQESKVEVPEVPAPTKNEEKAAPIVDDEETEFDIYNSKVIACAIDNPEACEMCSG
T1 sequence (P09938 1-399 partner): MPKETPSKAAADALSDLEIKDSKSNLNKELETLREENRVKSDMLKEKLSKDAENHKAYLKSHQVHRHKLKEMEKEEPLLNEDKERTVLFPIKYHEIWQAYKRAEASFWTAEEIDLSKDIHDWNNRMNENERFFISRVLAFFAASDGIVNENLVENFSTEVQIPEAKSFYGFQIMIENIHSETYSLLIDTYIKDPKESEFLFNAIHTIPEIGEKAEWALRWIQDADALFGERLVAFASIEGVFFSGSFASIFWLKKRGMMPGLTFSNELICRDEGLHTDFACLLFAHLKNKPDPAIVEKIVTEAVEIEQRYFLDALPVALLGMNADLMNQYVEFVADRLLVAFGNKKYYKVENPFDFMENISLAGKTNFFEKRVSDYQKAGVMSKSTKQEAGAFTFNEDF
T1 sequence (P49723 1-345 partner): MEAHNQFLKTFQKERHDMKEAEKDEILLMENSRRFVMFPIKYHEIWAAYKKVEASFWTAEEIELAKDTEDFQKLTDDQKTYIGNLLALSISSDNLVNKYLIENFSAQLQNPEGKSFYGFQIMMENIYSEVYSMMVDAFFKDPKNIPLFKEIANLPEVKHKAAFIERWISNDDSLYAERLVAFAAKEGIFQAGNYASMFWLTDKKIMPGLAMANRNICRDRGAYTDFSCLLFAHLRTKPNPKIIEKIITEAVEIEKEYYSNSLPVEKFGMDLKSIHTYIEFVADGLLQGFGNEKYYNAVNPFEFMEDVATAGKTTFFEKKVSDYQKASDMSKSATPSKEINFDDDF
Briefly: [3H]CDP reduction assay, borate chromatography, isotope counting. Format: biochemical. The following applies: ATP effector, 0.05 to 1 mM CDP (hexamer); labelled compound; C-site.

The target of assay [2] is T1, ScRR (ScRR1 with ScRR2•ScRR4). Briefly: NDP reduction assay. The format is biochemical. The following applies: read-out: % inhibition at 20 μM.

Take `Nc1ccn([C@@H]2O[C@H](COP(=O)(O)OP(=O)(O)O)[C@@H](O)[C@H]2O)c(=O)n1` [CDP]: the “[3H]CDP reduction assay, borate chromatography, isotope counting” value in assay [1] was “When ATP/CDP was used as the effector-substrate pair, [^3H]CDP concentrations were varied”.

What is called inhibition is the relative decrease from the control value, in per cent. For `Nc1ncnc2c1ncn2[C@H]1C[C@H](O)[C@@H](COP(=O)(O)OP(=O)(O)OP(=O)(O)O)O1` [dATP], the inhibition at 20 µM in assay [2] was about 50%.
